The record followed here is ChEMBL document CHEMBL5712891, “Inhibition of BET bromodomain-dependent XIAP and FLIP expression sensitizes KRAS-mutated NSCLC to pro-apoptotic agents” (Cell Death Dis, 2016).

SMILES strings stand for the structures. The source made the active and inactive calls. The calls are words filed in the database; no cut-off is given here.

The test system of data set [1] is A549. In words: Induction of apoptosis in human A549 cells assessed as necrotic cells at 2.5 uM for 24 hrs by annexin V-PI staining based flow cytometric analysis (reference value: 1.3%). Type of data set: functional. In general terms: A flow cytometer gives signals particle by particle.
Data set [2] relates to NCI-H460. Briefly: Downregulation of XIAP mRNA expression level in human NCI-H460 cells at 0.1 to 1 uM for 24 hrs by qRT-PCR analysis. Type of data set: functional, cell-based. To be noted: dose 0.1-1 µM. In general terms: Real-time PCR tracks product formation cycle by cycle.
In data set [3] the test system is NCI-H1373. Briefly: Antiproliferative activity against human NCI-H1373 cells at 500 to 2500 nM in presence of TNF by cell titre glo assay. Type of data set: functional, cell-based. To be noted: dose 500-2500 nM.
The subject of data set [4] is NCI-H358. In words: Antiproliferative activity against human NCI-H358 cells at 500 to 2500 nM in presence of TNF by cell titre glo assay. To be noted: dose 500-2500 nM. Type of data set: functional, cell-based.
Data set [5] concerns A549. Briefly: Induction of cell cycle arrest in human A549 cells assessed as accumulation of cells at G2/M phase at 0.1 uM for 24 hrs by Click-iT EdU Alexa Fluor 647 flow cytometric assay kit analysis (reference value: 3%). Type of data set: functional.
The subject of data set [6] is NCI-H1373. In words: Induction of TRAIL dependent apoptosis in human NCI-H1373 cells assessed as late apoptotic cells at 1 uM by annexin V-PI staining based flow cytometric analysis (reference value: 8.3%). Type of data set: functional.
Data set [7] deals with NCI-H460. In words: Induction of apoptosis in human NCI-H460 cells assessed as late apoptotic cells at 0.5 uM for 24 hrs by annexin V-PI staining based flow cytometric analysis (reference value: 3.0%). Type of data set: functional.
Data set [8] deals with NCI-H1373. In words: Induction of apoptosis in human NCI-H1373 cells assessed as late apoptotic cells at 0.5 uM for 24 hrs by annexin V-PI staining based flow cytometric analysis (reference value: 16.2%). Type of data set: functional.
Data set [9] deals with A549. In words: Induction of cell cycle arrest in human A549 cells assessed as accumulation of cells at G0/G1 phase at 0.25 uM for 24 hrs by Click-iT EdU Alexa Fluor 647 flow cytometric assay kit analysis (reference value: 61%). Type of data set: functional.
Data set [10] is described as follows: Toxicity in SCID mouse xenografted with human A549 cells assessed as body weight loss administered at 50 mg/kg, ip for 28 days relative to control. Type of data set: organism-based. To be noted: in vivo, 672 h, time 28 day. In general terms: Xenograft models place foreign cells or tissue in a host animal.
The subject of data set [11] is A549. Briefly: Induction of cell cycle arrest in human A549 cells assessed as accumulation of cells at S phase at 1 uM for 24 hrs by DAPI staining analysis (reference value: 36%). Type of data set: functional.
Data set [12] relates to HFF-1. Briefly: Cytotoxicity against HFF-1 cells at 500 to 2500 nM in presence of TNF by cell titre glo assay. To be noted: human, hff-1, 2.5 µM; dose 500-2500 nM. Type of data set: toxicity, cell-based.
Data set [13] deals with NCI-H23. Briefly: Downregulation of c-MYC mRNA expression level in human NCI-H23 cells at 0.1 to 1 uM for 24 hrs by qRT-PCR analysis. Type of data set: functional, cell-based. To be noted: dose 0.1-1 µM.
Data set [14] concerns NCI-H441. In words: Downregulation of XIAP mRNA expression level in human NCI-H441 cells at 0.1 to 1 uM for 24 hrs by qRT-PCR analysis. Type of data set: functional, cell-based. To be noted: dose 0.1-1 µM.
Data set [15] relates to DV-90. In words: Induction of apoptosis in human DV-90 cells assessed as early apoptotic cells at 0.5 uM for 24 hrs by annexin V-PI staining based flow cytometric analysis (reference value: 1.7%). Type of data set: functional.
The subject of data set [16] is DV-90. Briefly: Induction of cell cycle arrest in human DV-90 cells assessed as accumulation of cells at G2/M phase at 0.1 uM for 24 hrs by Click-iT EdU Alexa Fluor 647 flow cytometric assay kit analysis (reference value: 21%). Type of data set: functional.
Data set [17] deals with DV-90. In words: Induction of cell cycle arrest in human DV-90 cells assessed as accumulation of cells at G0/G1 phase at 0.1 uM for 24 hrs by Click-iT EdU Alexa Fluor 647 flow cytometric assay kit analysis (reference value: 47%). Type of data set: functional.
Data set [18] has as its system DV-90. Briefly: Induction of apoptosis in human DV-90 cells assessed as late apoptotic cells at 2.5 uM for 24 hrs by annexin V-PI staining based flow cytometric analysis (reference value: 8.7%). Type of data set: functional.
For data set [19], the system named is NCI-H460. Briefly: Induction of cell cycle arrest in human NCI-H460 cells assessed as accumulation of cells at S phase at 0.25 uM for 24 hrs by Click-iT EdU Alexa Fluor 647 flow cytometric assay kit analysis (reference value: 54%). Type of data set: functional.
For data set [20], the system named is DV-90. Briefly: Induction of cell cycle arrest in human DV-90 cells assessed as accumulation of cells at G2/M phase at 0.1 uM for 24 hrs by Click-iT EdU Alexa Fluor 647 flow cytometric assay kit analysis (reference value: 25%). Type of data set: functional.
For data set [21], the system named is NCI-H1373. Briefly: Induction of cell cycle arrest in human NCI-H1373 cells assessed as accumulation of cells at G0/G1 phase at 0.1 uM for 24 hrs by Click-iT EdU Alexa Fluor 647 flow cytometric assay kit analysis (reference value: 45%). Type of data set: functional.
Data set [22] relates to NCI-H1373. Briefly: Induction of cell cycle arrest in human NCI-H1373 cells assessed as accumulation of cells at G0/G1 phase at 0.5 uM for 24 hrs by Click-iT EdU Alexa Fluor 647 flow cytometric assay kit analysis (reference value: 48%). Type of data set: functional.

With `Cc1sc2c(c1C)C(c1ccc(Cl)cc1)=N[C@@H](CC(=O)OC(C)(C)C)c1nnc(C)n1-2`, the Activity is 0.9% in data set [1]; 2% in [5]; 14% in data set [6]; 4.5% in [7]; 20.2% in [8]; 63% in [9]. The Activity in data set [10] is 5%; in data set [11], 32%; in [12], “Non-Toxic”; in data set [15], 2.6%. Moreover, the outcome in [2], in [3], in [4], in data set [13] and in data set [14] was Active.

In the case of `Cc1sc2c(c1C)C(c1ccc(Cl)cc1)=N[C@@H](CC(=O)Nc1ccc(O)cc1)c1nnc(C)n1-2` [BIRABRESIB], the Activity in data set [16] is recorded as 29%; in [17] it was 50%; in data set [18], 13.5%.

Take `CCNC(=O)C[C@@H]1N=C(c2ccc(Cl)cc2)c2cc(OC)ccc2-n2c(C)nnc21` [MOLIBRESIB]: the Activity turned out to be 56% in data set [19], 31% in data set [20], 46% in data set [21] and 73% in data set [22].
